Data set [1] relates to Mus musculus. Description: Induction of muscle relaxation/sedation in po dosed mouse by inclined screen test. Type of data set: functional.
Data set [2] concerns Mus musculus. Description: Induction of taming effect in po dosed mouse by foot shock method. Type of data set: functional.
For data set [3], the system named is Felis catus. Description: Muscle relaxing activity in po dosed cat. Type of data set: functional.
Data set [4] concerns Mus musculus. Description: Anticonvulsant activity in po dosed mouse assessed as reduction of pentylenetetrazole-induced seizures. Type of data set: functional.
In data set [5] the test system is Mus musculus. Description: Anticonvulsant activity in po dosed mouse assessed as reduction of maximal electroshock-induced seizures. Type of data set: functional.
Data set [6] relates to Mus musculus. Description: Anticonvulsant activity in po dosed mouse assessed as reduction of minimal electroshock-induced seizures. Type of data set: functional.
The species entered for data set [7] is Mus musculus. Description: Toxicity in mouse assessed as effect on central nervous system. Type of data set: organism-based. The note with it: in vivo.
The subject of data set [8] is Rhesus monkey. Description: Induction of taming effect in monkey by foot shock method. The following applies: Macaca mulatta. Type of data set: functional, organism-based.
The species named for data set [9] is Mus musculus. Description: Toxicity in mouse. The note with it: in vivo. Type of data set: organism-based.

Structures are written as SMILES. Several values for one entry are separate records, joined by “and”; a condition that tells them apart may be missing. Equal entries are not always repeated. Activity calls are given as the source filed them. The calls are words filed in the database; no cut-off is given here.

As for `CNC1=Nc2ccc(Cl)cc2C(c2ccccc2)=[N+]([O-])C1.Cl` [CHLORDIAZEPOXIDE HYDROCHLORIDE], the Activity in data set [1] is 100 mg/kg; in data set [2] it was 40 mg/kg; in data set [3] it was 2 mg/kg; in data set [4] it was 18 mg/kg; in [5], 92 mg/kg; in [6], 150 mg/kg. The values for the Activity result in [7] and in [9] were “Non-toxic” and 620 mg/kg, respectively. In addition, the result in data set [8] was Active.

As for `CN(C)CCCN1c2ccccc2Sc2ccc(Cl)cc21` [CHLORPROMAZINE], the Activity in [1] stood at 17 mg/kg; in [2], 20 mg/kg; in data set [3] it was 2.5 mg/kg; in data set [4] it was 42 mg/kg; in data set [5], 150 mg/kg; in [6] it was 600 mg/kg. In data set [7], the Activity result is “Toxic”.

As to `O=C1C[N+]([O-])=C(c2ccccc2)c2cc(Cl)ccc2N1` [DEMOXEPAM], the Activity worked out at 100 mg/kg in [1]; 20 mg/kg in data set [2]; 2 mg/kg in data set [3]; 15 mg/kg in data set [4]; 150 mg/kg in data set [5]; 150 mg/kg in data set [6].

With `CN1C(=O)CN=C(c2ccccc2)c2cc(Cl)ccc21` [DIAZEPAM], the Activity in data set [1] is 75 mg/kg and 30 mg/kg.

As to `CCCC(C)(COC(N)=O)COC(N)=O` [MEPROBAMATE], the Activity in data set [1] was 250 mg/kg; in data set [2] it was 250 mg/kg; in data set [3] it was 100 mg/kg; in data set [4] it was 150 mg/kg; in data set [5], 200 mg/kg; in [6], 167 mg/kg.

For `CCC1(c2ccccc2)C(=O)NC(=O)NC1=O` [PHENOBARBITAL], the Activity in data set [1] worked out at 120 mg/kg; in [2], 80 mg/kg; in data set [3], 10 mg/kg; in data set [4], 75 mg/kg; in [5], 18 mg/kg; in data set [6] it was 90 mg/kg.

With `COC(=O)[C@H]1[C@H]2C[C@@H]3c4[nH]c5cc(OC)ccc5c4CCN3C[C@H]2C[C@@H](OC(=O)c2cc(OC)c(OC)c(OC)c2)[C@@H]1OC` [RESERPINE], the Activity result in [7] is given as “Toxic”.
